Measured values as given in article PMC8779485, “Implementation and Comparison of Two Pharmacometric Tools for Model-Based Therapeutic Drug Monitoring and Precision Dosing of Daptomycin” (Pharmaceutics, 2022).

How the values were obtained:
[1] = Daptomycin TDM in patients with bone and joint infection, Bayesian estimation with nonparametric model in BestDose (validation dataset)
From the text: (§1) We used two data sets: a learning set used to derive the nonparametric population model of daptomycin and a validation dataset. The learning dataset was described in a previous publication from our group, which focused on the influence of P-gp gene polymorphism on daptomycin PK (n = 81 patients). […] All patients were enrolled in a cohort study after information. This cohort study was subject to a declaration to the local Commission for Data Protection and Liberties (number 17-057) and is registered on ClinicalTrial.gov (number NCT03134521). In addition, patients’ written informed consent was obtained for P-gp genotyping, in accordance with French regulation.
(§2) Blood samples for daptomycin TDM were obtained during hospitalization or follow-up visit at the BJI center. In most patients, TDM was performed on several occasions to control drug exposure throughout therapy. At each occasion, a typical PK profile was obtained, including three plasma samples collected approximately pre-dose (trough or Cmin), 30 min and 5 to 6 h after daptomycin administration. On some occasions, only one or two samples could be obtained. Sampling times were recorded precisely in each patient. Daptomycin plasma concentrations were measured using an HPLC assay with a photodiode array detector. The method was adapted from a previous publication.
(§3) In our previous work, the final population PK model of daptomycin was built by using a parametric approach (SAEM algorithm in the Monolix software). […] We reanalyzed the original dataset in order to implement a nonparametric model into the BestDose software. The NPAG algorithm embedded into the Pmetrics package for R was used to develop the nonparametric model. […] The error model was based on the assay error pattern. The predictive performance of the final model was assessed by computing the bias and precision of model-based individual predictions (see below). The model was then imported into the Windows version of the BestDose software.
(§4) We used an external dataset from 94 patients who received daptomycin for BJI and had TDM to validate the predictive performance of our nonparametric model in BestDose and that of the parametric model in Tucuxi. In this evaluation, we only used the daptomycin concentrations collected during the first TDM occasion in each patient.
(§5) The dosage history, covariate values, times and values of measured concentrations in each patient were entered into each program. The population model was fit to individual data by using Bayesian regression in both tools. After estimation of Bayesian posterior individual PK parameters, the estimated PK profile of each patient was obtained, including predictions of measured daptomycin concentrations.
(§6) Because daptomycin AUC is an important predictor of its antibacterial effect, we also compared the estimations of individual daily AUC (AUC24h) in the 94 patients provided by BestDose and Tucuxi.

[2] = Daptomycin TDM in patients with bone and joint infection, Bayesian estimation with parametric model (Dvorchik et al.) in Tucuxi (validation dataset)
From the text: as §1, §2
As we aimed at comparing our nonparametric model to a reference model for TDM and dose adjustment, we implemented the seminal daptomycin parametric model developed by daptomycin’s manufacturer into the Tucuxi software. Tucuxi is a new software dedicated to the analysis of TDM results and individual dose adjustment (http://www.tucuxi.ch/, accessed 27 December 2021).
The two-compartment reference model from Dvorchik et al. was imported into Tucuxi, including its error model and all its covariates except body temperature, which influenced daptomycin clearance in the original model. This covariate was discarded because it is not measured consistently in all patients in routine, especially in outpatients, and its value may be altered by co-treatment such as acetaminophen. The other covariates were retained, with creatinine clearance and sex influencing daptomycin clearance and body weight influencing both intercompartment clearance and peripheral volume of distribution.
as §4, §5, §6

[3] = cited from earlier work
Description: Daptomycin is a cyclic lipopeptide antibiotic with bactericidal activity on Gram-positive bacteria discovered in 1980 [1, 2]. The Food and Drug Administration (FDA) approved its use in 2003 for treating complicated skin and skin structure infections and Staphylococcus aureus bloodstream infections, including those with right-sided infective endocarditis. In those indications, the recommended dosing regimen ranges from 4 to 6 mg/kg. Daptomycin is also used off-label in various indications, including bloodstream infections caused by Gram-positive agents others than S. aureus and bone an ...

[4] = patients who received 6 mg/kg; cited from earlier work
[5] = in vivo; cited from earlier work
From the text: However, increasing daptomycin doses raises concerns about safety. It was shown that daptomycin muscular toxicity, as measured by elevation in serum creatinine phosphokinase (CPK), correlated with plasma trough concentration (Cmin).

[6] = Nonparametric population PK model of daptomycin (NPAG, Pmetrics) in the learning dataset
From the text: as §1, §2, §3

[7] = learning dataset n = 81, Pmetrics estimation, mean
[8] = learning dataset n = 81, Pmetrics estimation, median

## CCCCCCCCCC(=O)N[C@@H](Cc1c[nH]c2ccccc12)C(=O)N[C@H](CC(N)=O)C(=O)N[C@@H](CC(=O)O)C(=O)N[C@@H]1C(=O)NCC(=O)N[C@@H](CCCN)C(=O)N[C@@H](CC(=O)O)C(=O)N[C@H](C)C(=O)N[C@@H](CC(=O)O)C(=O)NCC(=O)N[C@H](CO)C(=O)N[C@@H]([C@H](C)CC(=O)O)C(=O)N[C@@H](CC(=O)c2ccccc2N)C(=O)O[C@@H]1C [daptomycin, Daptomycin]
[1]; BestDose individual estimate, validation dataset n = 94, mean ± SD, SD
  T1/2 (terminal half-life): 16.8 ± 10.6 h
[1]; human, in vivo
  Proportion of patients with AUC24h < 666 mg.h/L (underexposed): 21.3%
[1]; human, in vivo, 1.3 mg/kg, SD
  AUC24h: 975 ± 395 µg·h/mL
[1]; human, in vivo, SD
  CLdap (daptomycin total body clearance): 0.74 ± 0.42 L/h
  Cmin: 21300 ± 12900 ng/mL
  Dmin (minimum effective dose to attain AUC24h = 666 mg.h/L at steady-state): 6.4 ± 2.7 mg/kg
  Predicted concentrations: 46.6 ± 46.7 mg/L
  V1: 7.9 ± 3.5 L
[2]; Tucuxi individual estimate, validation dataset n = 94, mean ± SD
  T1/2 (terminal half-life): 13.1 ± 4.7 h
[2]; human, in vivo, SD
  AUC24h: 893 ± 345 µg·h/mL
  CLdap (daptomycin total body clearance): 0.73 ± 0.29 L/h
  Dmin (minimum effective dose to attain AUC24h = 666 mg.h/L at steady-state): 6.9 ± 2.8 mg/kg
  Predicted concentrations: 44.3 ± 44.5 mg/L
  V1: 5.9 ± 2.4 L
[3]; 10 patients
  Average ratio of area under the unbound concentration time-curve in bone over plasma: 1.08
[3]; bone
  Average tissue to plasma concentration ratio, bone: 14.1%
[3]; synovial fluid
  Average tissue to plasma concentration ratio, synovial fluid: 54%
[4]
  Rate of efficacy target attainment: 40%
[5]
  Upper bound for Cmin target (CPK elevation): 24300 ng/mL
[6]; in vivo
  Kpc (transfer rate constant peripheral to central), mean: 0.667 h⁻¹
  Kpc (transfer rate constant peripheral to central), median: 0.449 h⁻¹
[6]; [7]
  Kcp (transfer rate constant central to peripheral), mean: 0.693 h⁻¹
  Ki (non-renal component of elimination rate constant), mean: 0.060 h⁻¹
  Ks (renal component of elimination rate constant), mean: 0.050 h^−1 per 100 mL/min of CLCR
[6]; [8]
  Kcp (transfer rate constant central to peripheral), median: 0.287 h⁻¹
  Ki (non-renal component of elimination rate constant), median: 0.052 h⁻¹
  Ks (renal component of elimination rate constant), median: 0.045 h^−1 per 100 mL/min of CLCR
[6]; population parameter, learning dataset n = 81, Pmetrics estimation, mean
  V1 (central volume of distribution), mean: 6.90 L per 70 kg
[6]; population parameter, learning dataset n = 81, Pmetrics estimation, median
  V1 (central volume of distribution), median: 7.18 L per 70 kg
